{
  "source": "patent US12257352B2",
  "about": "“Compositions and methods for delivery of biomacromolecule agents” (The Regents of the University of Michigan, priority 2016, dated 2025)",
  "assay": "Lymph node draining of antigen peptide and Cho-CpG (IVIS)",
  "format": "in vivo, C57BL/6 mice",
  "settings": "31 nmol FITC-tagged Ag subcutaneously at tail base, after 1 day",
  "procedure": "Female C57BL/6 mice of age 6-8 weeks were purchased from Harlan Laboratories. […] 24 hours after injection, mice were euthanized by carbon dioxide inhalation and axillary lymph nodes and inguinal lymph nodes were harvested and imaged with IVIS optical imaging system (Caliper Lifesciences).\nAfter 24 h, inguinal lymph nodes were harvested, and FITC or Cy5 fluorescence signal was measured with IVIS optical imaging system (Caliper Life Sciences).",
  "note": "Peptide text beside a SMILES is read from it. * marks the point of attachment. FITC = O=C1OC2(c3ccc(O)cc3Oc3cc(O)ccc32)c2ccc(NC(=S)*)cc21",
  "data": [
    {"molecule": "CC[C@H](C)[C@H](NC(=O)[C@H](CO)NC(=O)[C@H](CO)NC(=O)[C@H](CO)NC(=O)[C@@H](N)CS)C(=O)N[C@H](C(=O)N[C@@H](CC(N)=O)C(=O)N[C@@H](Cc1ccccc1)C(=O)N[C@@H](CCC(=O)O)C(=O)N[C@@H](CCCCNC(=S)Nc1ccc2c(c1)C(=O)OC21c2ccc(O)cc2Oc2cc(O)ccc21)C(=O)N[C@@H](CC(C)C)C(=O)O)[C@@H](C)CC", "note": "[free CSS-SIINFEK(FITC)L] (H-CSSSIINFEK(FITC)L-OH)", "values": [
      {"measurement": "FITC signal in inguinal dLNs", "result": "minimal FITC signal in inguinal dLNs"}
    ]}
  ]
}
